Results reported in PubChem BioAssay (NCI).
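Protocol summary: plate cells (96-well), add compound at 5 concentrations, incubate 48 h, interpolate endpoints linearly. The concentration for 50% growth inhibition is given as GI50. TGI is the concentration that stops growth completely.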

Assays:
Experiment in all cases: inhibition of tumour cell growth, NCI panel, 48 h
SK-MEL-5 melanoma = system: SK-MEL-5 melanoma
MCF7 breast = system: MCF7 breast
U251 CNS = system: U251 CNS
OVCAR-3 ovarian = system: OVCAR-3 ovarian
A498 renal = system: A498 renal
CCRF-CEM leukemia = system: CCRF-CEM leukemia
COLO 205 colon = system: COLO 205 colon
HCC-2998 colon = system: HCC-2998 colon

| SMILES | GI50 (SK-MEL-5 melanoma) [µM] | TGI (SK-MEL-5 melanoma) [µM] | GI50 (MCF7 breast) [nM] | TGI (MCF7 breast) [µM] | GI50 (U251 CNS) [nM] | TGI (U251 CNS) [µM] | GI50 (OVCAR-3 ovarian) [µM] | TGI (OVCAR-3 ovarian) [µM] | GI50 (A498 renal) [µM] | TGI (A498 renal) [µM] | GI50 (CCRF-CEM leukemia) [µM] | TGI (CCRF-CEM leukemia) [µM] | GI50 (COLO 205 colon) [µM] | TGI (COLO 205 colon) [µM] | GI50 (HCC-2998 colon) [µM] | TGI (HCC-2998 colon) [µM] |
| --- | --- | --- | --- | --- | --- | --- | --- | --- | --- | --- | --- | --- | --- | --- | --- | --- |
| COc1ccc(C(=O)CC(Cl)=C(Cl)Cl)cc1 | 33.8 | > 100 | 53400 | > 100 | 36000 | > 100 | 20.6 | 41.2 | > 100 | > 100 | 30.3 | > 100 | 25.6 | 61.5 | – | – |
| Oc1ccc(-c2nc(-c3ccc4oc5ccc(-c6[nH]c(-c7ccc(O)cc7)nc6-c6ccccc6)cc5c4c3)c(-c3ccccc3)[nH]2)cc1 | 4.46 | 75.5 | 2990 | 73.9 | 2930 | 15 | 4.3 | 15.2 | 12.2 | 26 | – | – | 3.09 | 8.18 | 3.12 | 9.69 |
| CCCCCCCCCCCCOC1C(C(COC2OC(C(O)CO)C3OC(C)(C)OC23)OC(=O)Nc2ccc([N+](=O)[O-])cc2)OC2OC(C)(C)OC21 (centres undefined) | 1.71 | 3.11 | 2690 | 8.6 | 1850 | 3.59 | 1.65 | 3.14 | 2.63 | 6.09 | – | – | 7.28 | 23.9 | 11.6 | 25.1 |
| N#Cc1c(-c2ccc(Cl)cc2)n([O-])c2ccccc2[n+]1=O | 15.9 | 31.7 | 15900 | > 100 | 4370 | 17.1 | 1.27 | 2.88 | – | – | 2.63 | 8.2 | 23 | 54.4 | 13.3 | 26 |
| Cc1ccc(SCN2CCCCC2)cc1 (tested in a mixture with another compound) | – | 12.5 | – | 59.4 | – | 23.2 | – | 30 | – | 14.7 | – | 6.59 | – | 16 | – | – |
| Cn1c(N)c(N=Nc2ccc(S(N)(=O)=O)cc2)c(=O)n(C)c1=O | – | > 100 | – | > 100 | – | > 100 | – | > 100 | – | > 100 | – | > 100 | – | > 100 | – | – |
| CCCC1C2=C(C(=O)OC2=O)C2C(CC)CC3=C(C(=O)OC3=O)C12 (centres undefined) | – | > 100 | – | > 100 | – | > 100 | – | > 100 | – | > 100 | – | > 100 | – | > 100 | – | – |
| Cc1ccc(S(=O)(=O)NC(CCCCN)C(=O)CCl)cc1 (centres undefined) | 47.8 | > 100 | 57900 | > 100 | 29000 | > 100 | 33.2 | > 100 | – | – | – | – | 41.1 | > 100 | 37.4 | > 100 |
| O=C1c2cccc3cc4ccccc4c(c23)C(=O)N1CCCNCCNCCCN1C(=O)c2cccc3cc4ccccc4c(c23)C1=O | – | 1.39 | – | – | – | 1.73 | – | 1.86 | – | 1.91 | – | – | – | – | – | 1.71 |
| CN(C)CCCn1c2c(c3ccc([N+](=O)[O-])cc3c1=O)C(=O)c1ccccc1-2 | 3.79 | 16.6 | 2410 | > 100 | 6360 | 27.7 | 25.6 | 70.5 | – | – | 3.85 | 59 | 23.9 | 87.5 | 15.3 | 41.7 |
| Nc1cc2[nH]c(=O)c3cc(Cl)ccc3c2cc1Cl | – | 27 | – | 13.8 | – | 26.1 | – | 29.4 | – | – | – | > 100 | – | > 100 | – | > 100 |
| COc1ccc(/C(C)=C(\c2ccc(Cl)cc2)c2ccc(OCCN3CCCCC3)cc2)cc1F | 2.76 | 5.1 | 3340 | 8.24 | 2680 | 6.51 | 3.25 | 6.65 | – | – | 3.98 | 16.1 | 1.75 | 5.25 | 3.21 | 7.14 |
| COc1cc(OC)c(-c2oc3ccccc3c(=O)c2O)c(OC)c1 | – | > 100 | – | > 100 | – | > 100 | – | – | – | > 100 | – | > 100 | – | > 100 | – | – |
| COC(=O)[C@@H](C)C[C@H](Cc1ccccc1)NC(=O)c1cccc([C@@H](C[C@H](C(C)C)N(C)C(=O)[C@@H](NC(=O)[C@H]2CCCCN2C)C(C)C)OC(C)=O)n1 | < 0.00167 | 0.0252 | < 1.67 | > 16.7 | < 1.67 | > 16.7 | < 0.00167 | 0.00268 | – | – | 0.00203 | > 16.7 | – | – | < 0.00167 | > 7.55 |
| Cc1cc(N2CCOCC2)nc(N(CCNc2ccnc3cc(Cl)ccc23)Cc2cccs2)n1 | 1.59 | 2.96 | 1970 | 4.68 | 1880 | 3.64 | – | – | – | – | 2.02 | 6.1 | 1.62 | 3.25 | 2.39 | 5.11 |
